51 molecules from patent publication US12617777B2, “GPR84 antagonists and uses thereof” (Liminal BioSciences Limited, priority 2021, dated 2026) can be followed below.

pIC50: −log10 of the molar value. A value given as a limit tells only on which side of the number the result lay.

This assay concerns the target T1, human GPR84 receptor (Homo sapiens, UniProt Q9NQS5).
T1 construct: host or cells: HEK293, transient transfection
Kind of assay: Gαi biosensor BRET assay in HEK293 cells (antagonism of ZQ-16). The following applies: for inhibition at 10 µM: HEK293, single concentration 10 μM (designated F); for inhibition at 25 µM: HEK293, single concentration 25 μM (designated I); for pIC50: HEK293 cells, antagonism of 200 nmol/L ZQ-16. In kind it is cell-based. Summed up: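 HEK293 cells transiently expressing human GPR84, Gαi2-Rluc8, GFP10-Gγ2 and Gβ1, in Tyrode's buffer pH 7.5. Compounds preincubated 5 min at 37° C, then 200 nmol/L ZQ-16 for 5 min at room temperature; coelenterazine 400A 5 μmol/L. BRET2 acceptor/donor ratio, background- and vehicle-corrected net BRET.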
Background: BRET reads energy transfer from a luciferase to a nearby fluorophore.

T1 sequence (Q9NQS5 whole entry): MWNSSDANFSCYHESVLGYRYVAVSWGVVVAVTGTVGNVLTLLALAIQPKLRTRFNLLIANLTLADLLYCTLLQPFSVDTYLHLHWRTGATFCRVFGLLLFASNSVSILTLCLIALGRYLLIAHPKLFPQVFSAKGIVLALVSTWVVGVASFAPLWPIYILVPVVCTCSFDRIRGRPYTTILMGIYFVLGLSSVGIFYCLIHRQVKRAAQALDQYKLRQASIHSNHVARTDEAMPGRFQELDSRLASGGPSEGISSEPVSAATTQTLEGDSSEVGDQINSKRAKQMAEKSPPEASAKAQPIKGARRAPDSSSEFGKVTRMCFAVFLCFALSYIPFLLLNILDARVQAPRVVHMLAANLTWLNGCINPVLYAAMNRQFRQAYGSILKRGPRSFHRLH

Broadly, the inhibition is the drop in the measured response relative to a control, in per cent. Read a low inhibition as little suppression. In the case of `Cc1cc(N2CC(C)(N(C)C)C2)ccc1-c1cn(CC2CCCCO2)nn1` (stereo not shown) [Compound I-470], the inhibition at 10 µM was no more than 25%.

`CC(=O)N(C)C(C)(C)COc1ccc(-c2cn(CC3CCCCO3)nn2)c(C)c1` (stereo not shown) [Compound I-290] gave an inhibition at 10 µM of 25 to 50%. In turn, `Cc1cc(CN2CCOCC2)ccc1-c1cn(CC2CCCCO2)nn1` (stereo not shown) [Compound I-74] returned an inhibition at 25 µM of 25 to 50%.

For orientation: pIC50 means −log10 of the IC50, conventionally taken in molar units. Higher therefore signals a low IC50. `CN(C)c1cc(N2CC(C)(CO)C2)ccc1-c1cn(CC2OCC(C)(C)CO2)nn1` [Compound I-654] gave an inhibition at 10 µM greater than 75% and a negative logarithm of the IC50 (pIC50) of no less than 6.52. For the molecule `Cc1cc(C#CCNc2ccccc2)ccc1-c1cn(CCOc2ccccn2)nn1` [Compound I-135], the inhibition at 10 µM was no more than 25%.

Consider `Cc1cc(N2CC(F)(F)C2)ccc1-c1cn(CC2CCCCO2)nn1` (stereo not shown) [Compound I-158], for which the inhibition at 10 µM is no more than 25%. In the case of `CN(C)c1cc(N2CC(C)(CO)C2)ccc1-c1cn(CC2OCC(F)(F)CO2)nn1` [Compound I-729], the inhibition at 10 µM is greater than 75%.

`Cc1cc(C#CC2CC2)ccc1-c1cn(CC2OCC(F)(F)CO2)nn1` [Compound I-670] registered an inhibition at 10 µM of 50 to 75%. The same measure, in the same setting: next, `Cc1cc(N2CCN(Cc3nccn3C)CC2)ccc1-c1cn(CC2CCCCO2)nn1` (stereo not shown) [Compound I-580]: 25 to 50%; `Cc1cc(C#CCN2CCCCC2=O)ccc1-c1cn(CC2CCCCO2)nn1` (stereo not shown) [Compound I-205]: 25 to 50%; `Cc1cc(C#CC2CC2)cnc1-c1cn(CC2OCC(c3ccccc3)CO2)nn1` (stereo not shown) [Compound I-705]: no more than 25%.

For the molecule `CCc1cc(C#CCN2CC(C)(CO)C2)cnc1-c1cn(CC2OCC(C)(C)CO2)nn1` [Compound I-789], the inhibition at 10 µM is 50 to 75% and the pIC50 was 6.00 to 6.52. Consider `CCc1cc(C#CCOC2CC2)ccc1-c1cn(CC2OCC(C)(C)CO2)nn1` [Compound I-780], for which the inhibition at 10 µM is greater than 75% and the pIC50 was 6.00 to 6.52.

`Cc1cc(N2CC3CCC(C2)N3Cc2ccccn2)ccc1-c1cn(CC2CCCCO2)nn1` (stereo not shown) [Compound I-466] showed an inhibition at 10 µM of no more than 25%. As to `Cc1cc(NC(=O)C2CC2)ccc1-c1cn(CC2CCCCO2)nn1` (stereo not shown) [Compound I-109], the inhibition at 10 µM lay within 25 to 50%. `C(#CC1CC1)c1ccc(-c2cn(CC3CCCCO3)cn2)cc1` (stereo not shown) [Compound I-333]: the inhibition at 15 µM (HEK293, single concentration 15 μM (designated H)) was no more than 25%. `Cc1cc(N2CCCC(CO)C2)ccc1-c1cn(CC2CCCCO2)nn1` (stereo not shown) [Compound I-446] yielded an inhibition at 10 µM of 25 to 50%. The same measure, in the same setting: next, `Cc1cc(CN2CC(=O)NC2=O)ccc1-c1cn(CC2CCCCO2)nn1` (stereo not shown) [Compound I-558]: no more than 25%; `COCCn1cc(-c2ccc(C#CC3CC3)cc2C)nn1` [Compound I-104]: no more than 25%; `CN1Cc2c(C#CC3CC3)ccc(-c3cn(CC4CCCCO4)nn3)c2C1` (stereo not shown) [Compound I-268]: no more than 25%.

Consider `CC1(C)COC(Cn2cc(-c3ccc(N4CC(C)(CO)C4)cc3OC3CC3)nn2)OC1` [Compound I-767], for which the pIC50 was 6.00 to 6.52. For the molecule `Cc1cc(C#CC2CC2)ccc1-c1cn(CC23CC(C)(CO2)C3)nn1` [Compound I-556], the inhibition at 2 µM (HEK293, single concentration 2 μM (designated A)) was no more than 25%. Take `Cn1ccc2c(C#CC3CC3)ccc(-c3cn(CC4CCCCO4)nn3)c21` (stereo not shown) [Compound I-230]: the inhibition at 10 µM is no more than 25%. Regarding `Cc1cc(N2CC3(C2)CN(c2ccccn2)C3)ccc1-c1cn(CC2OCC(C)(C)CO2)nn1` [Compound I-663], the inhibition at 10 µM was greater than 75% and the pIC50 is less than 5.52. As to `Clc1cc(C#CC2CC2)cnc1-c1cn(C[C@H]2CCCCO2)nn1` [Compound I-823], the inhibition at 10 µM is no more than 25%. The molecule `Cc1cc(N2CCN(Cc3ccccn3)CC2)ccc1-c1cn(CC2OCC(C)(C)O2)nn1` (stereo not shown) [Compound I-603] had an inhibition at 10 µM of 50 to 75% and a pIC50 of less than 5.52. The molecule `Cc1c(-c2ccc(C#CCO)cc2)nnn1CC1CCCCO1` (stereo not shown) [Compound I-243] had an inhibition at 10 µM of 25 to 50%. Consider `CC1(C)CN(CC#Cc2cnc(-c3cn(CC4OCC5(CCC5)O4)nn3)c(OC3CC3)c2)C1` (stereo not shown) [Compound I-764], for which the pIC50 was 6.00 to 6.52. The molecule `Cc1cc(C#CCNC(=O)c2ccccc2)ccc1-c1cn(CC2CCCCO2)nn1` (stereo not shown) [Compound I-209] gave a pIC50 of less than 5.70. Molecule `Cc1cc(C#CCNC(=O)C(C)(C)C)ccc1-c1cn(CC2CCCCO2)nn1` (stereo not shown) [Compound I-208] gave an inhibition at 10 µM of 25 to 50%. For the molecule `CCc1cc(C#CCNc2ccccn2)cnc1-c1cn(C[C@H]2CCCCO2)nn1` [Compound I-658], the inhibition at 10 µM was greater than 75% and the negative logarithm of the IC50 (pIC50) is less than 5.52.

With `Cc1cc(N2CCN(Cc3cccnn3)CC2)ccc1-c1cn(CC2CCCCO2)nn1` (stereo not shown) [Compound I-548], the inhibition at 10 µM is 50 to 75% and the pIC50 was less than 5.52. Regarding `CC1(C)COC(Cn2cc(-c3cn(CC4OCC(C)(C)CO4)nn3)nn2)OC1` [Compound I-827], the inhibition at 10 µM was in the range of 50 to 75%. `COc1cc(C)c(-c2cn(CC3CCCCO3)nn2)cc1OC` (stereo not shown) [Compound I-257] gave an inhibition at 10 µM of no more than 25%. Molecule `COCC#Cc1ccc(-c2nnn(CC3CCCCO3)c2C)cc1` (stereo not shown) [Compound I-244] returned an inhibition at 10 µM of 25 to 50%. Turning to `Cc1cc(C#CC2CC2)ccc1-n1cc(CN2CCCCC2)nn1` [Compound I-296], the inhibition at 25 µM is no more than 25%. `Cc1cc(C#CC2CC2)ccc1-c1ncn(CC2CCCCO2)c1C` (stereo not shown) [Compound I-339] registered an inhibition at 10 µM of 25 to 50%. On the same count and under the same terms, next, `COC(C)(c1cccc(C#CC2CC2)c1)c1cn(CC2CCCCO2)nn1` (stereo not shown) [Compound I-631]: greater than 75%. Molecule `O=S1(=O)CCC(Cn2cc(-c3ccc(C#CC4CC4)cc3)nn2)CC1` [Compound I-56] gave an inhibition at 25 µM of no more than 25%. As to `CC(C)C#Cc1cnc(-c2cn(CC3OCC4(CC4)CO3)nn2)c(OC2CC2)c1` [Compound I-861], the inhibition at 10 µM was greater than 75%. On to `Cc1cc(CCCCN2CCCCC2)ccc1-c1cn(CC2CCCCO2)nn1` (stereo not shown) [Compound I-270], for which the inhibition at 10 µM is no more than 25%. In turn, `Cc1cc(N2CCC(N(C)C)CC2)ccc1-c1cn(CC2CCCCO2)nn1` (stereo not shown) [Compound I-129] showed an inhibition at 10 µM of no more than 25%. In turn, `COC(c1cn(CC2CCCCO2)nn1)c1c(C)ccc(C#CC2CC2)c1F` (stereo not shown) [Compound I-656] had an inhibition at 10 µM greater than 75% and a pIC50 of 6.00 to 6.52.

In the case of `CC(c1cn(CC2CCCCO2)nn1)c1cccc(C#CC2CC2)n1` (stereo not shown) [Compound I-416], the inhibition at 10 µM was 25 to 50%. In the case of `Cc1cc(N2CC(C)(C)C2)ccc1-c1cn(C[C@H]2CCCCO2)nn1` [Compound I-253], the pIC50 was no less than 6.52. Also, the inhibition at 3.3 µM (HEK293, single concentration 3.3 μM (designated C)) is greater than 75%.

Consider `CC(C)c1cc(N2CC(C)(C)C2)cnc1-c1cn(CC2CCCCO2)nn1` (stereo not shown) [Compound I-461], for which the inhibition at 10 µM was greater than 75%. The same measure, in the same setting: with `Cc1cc(N2CC(N(C)C)C2)ccc1-c1cn(CC2CCCCO2)nn1` (stereo not shown) [Compound I-114] the figure was no more than 25%.

Molecule `C(#CC1CC1)c1ccc(-c2cn(CC3CCOCC3)nn2)cc1` [Compound I-40] showed an inhibition at 25 µM of 25 to 50%. `CN(C)c1cc(N2CC3(COC3)C2)ccc1-c1cn(CC2OCC(C)(C)CO2)nn1` [Compound I-756] showed an inhibition at 10 µM greater than 75% and a pIC50 of 6.00 to 6.52. As to `Cc1cc(C#CC2CC2)cnc1-c1cn(CC2CCC(C)(C)O2)nn1` (stereo not shown) [Compound I-252], the inhibition at 10 µM lay in the range of 25 to 50%.

`Cc1cc(C#CC2CC2)sc1-c1cn(CC2CCCCO2)nn1` (stereo not shown) [Compound I-116] yielded an inhibition at 10 µM of 25 to 50%.
